Test results published in publication PMC12279193 (Advanced Science, 2025).

What was measured:
[1] = target: SARS-CoV-2 S-RBD/ACE2 (Severe acute respiratory syndrome coronavirus 2, UniProt P0DTC2); assay: NanoBiT RBD/ACE2 interaction assay in HEK293 cells; format: cell-based
[2] = target: recombinant SARS-CoV-2 S-trimer protein; trimeric spike protein (Severe acute respiratory syndrome coronavirus 2, UniProt P0DTC2); assay: SPR (Biacore T200), spike trimer immobilised on CM5 chip; format: binding

CN(/N=C/c1ccccc1C(=O)O)c1nc(-c2ccccc2Cl)cs1 [S416]
IC50 [1]: 3.94 µM
Kd [2]: 6.88 µM
